Molecules are shown by their SMILES.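 All cell lines were grown in 96-well plates and treated with compound for 48 hours. GI50 is the concentration that inhibits growth by half. The concentration for full growth arrest is given as TGI.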

Assay in all cases: NCI anticancer screen, dose series, 48 h
Assay [1] has as its system SK-MEL-2 melanoma.
Assay [2] has as its system OVCAR-8 ovarian.
Assay [3] has as its system HCT-15 colon.
Assay [4] has as its system NCI/ADR-RES ovarian.
Assay [5] concerns T-47D breast.
Assay [6] concerns RXF 393 renal.
In assay [7] the test system is K-562 leukemia.
Assay [8] relates to UACC-257 melanoma.
Assay [9] relates to RPMI-8226 leukemia.
Assay [10] deals with SW-620 colon.

With `COc1ccc(N=Cc2c(O)ccc3c2oc2cc(Cl)c(O)c(Cl)c23)cc1`, the GI50 in assay [1] was 5.92 µM; in [2], 15 µM; in assay [3], 7.38 µM; in [4], 12.2 µM; in [5], 7.65 µM; in [6] it was 14.2 µM. In addition, the GI50 was 5.63 µM in assay [7], 15.9 µM in assay [8], 4.83 µM in assay [9] and 11.8 µM in assay [10]. The TGI worked out at 22.9 µM in assay [1]; 45.9 µM in assay [2]; 25.7 µM in assay [3]; 50.7 µM in assay [4]; 46.4 µM in [5]; 31.4 µM in [6]. In addition, the TGI in assay [7] is 49.7 µM; in assay [8], 48.8 µM; in [9], 30.2 µM; in [10] it was 25.9 µM.
Consider `C=CCC(N[C@@H](CO)c1ccccc1)c1cn(Cc2ccccc2Cl)c(=O)n(Cc2ccccc2Cl)c1=O` (some centres undefined), for which the GI50 in assay [1], in assay [2], in assay [3], in assay [4], in assay [5] and in [6] was more than 100 µM each time. The GI50 was more than 100 µM in assay [7], more than 100 µM in assay [8], 55.8 µM in [9] and more than 100 µM in assay [10]. In addition, the TGI in assay [1], in assay [2], in [3], in assay [4], in assay [5] and in [6] was more than 100 µM throughout. Moreover, the TGI in assay [7], in assay [8], in [9] and in assay [10] was more than 100 µM throughout.
In the case of `Nc1ccccc1NC(=O)c1ccc(CNc2nccc(-c3cccnc3)n2)cc1`, the GI50 is 0.481 µM in [1]; 0.541 µM in assay [2]; 2.06 µM in assay [3]; 0.803 µM in assay [4]; 0.657 µM in assay [5]; 0.878 µM in assay [6]. For the same compound, the GI50 is 0.358 µM in assay [7], 0.73 µM in assay [8], 0.5 µM in [9] and 0.518 µM in assay [10]. Moreover, the TGI in assay [1] was 3.71 µM; in assay [2], more than 100 µM; in assay [3] it was more than 44.1 µM; in assay [4], more than 22.9 µM; in assay [5] it was more than 22.8 µM; in assay [6], 3.01 µM. Moreover, the TGI in assay [7] is more than 100 µM; in [9], 14.6 µM; in assay [10], more than 100 µM.
Consider `CCOC(=O)[C@@H](C)C[C@H](Cc1ccccc1)NC(=O)c1nc([C@@H](C[C@H](C(C)C)N(C)C(=O)[C@@H](NC(=O)[C@H]2CCCCN2C)C(C)C)OC(C)=O)sc1CCOCc1ccccc1`, for which the GI50 in [1] is 0.0639 µM; in assay [2], 0.216 µM; in [3], 0.262 µM; in assay [4], 0.503 µM; in assay [5], 0.0721 µM; in assay [6] it was 0.0657 µM. Besides, the GI50 in assay [7] was 0.0358 µM; in assay [8], 1.51 µM; in assay [9], 0.107 µM; in assay [10] it was 0.064 µM. The TGI in assay [1] was 2.39 µM; in assay [2] it was 2.08 µM; in assay [3], 1.51 µM; in assay [4], 3.98 µM; in [5], more than 11.1 µM; in assay [6], 1.53 µM. For the same compound, the TGI is 1.92 µM in assay [7], 4.19 µM in [8], 2.53 µM in [9] and more than 6.6 µM in assay [10].
Turning to `O=C1CC[C@H](N2C(=O)c3cccc4c(Cc5ccc(CN6CCOCC6)cc5)ccc2c34)C(=O)N1`, the GI50 is more than 100 µM in [1]; 56.6 µM in [2]; 41.8 µM in assay [3]; 42 µM in assay [4]; 10.7 µM in assay [5]; 2.45 µM in assay [6]. Moreover, the GI50 in [7] was 10.2 µM; in assay [8] it was 22.5 µM; in assay [9] it was 9.18 µM; in [10], more than 100 µM. The TGI in assay [1], in assay [2], in assay [3], in assay [4], in assay [5] and in assay [6] was more than 100 µM each time. Further, the TGI in assay [7], in assay [8], in assay [9] and in [10] was more than 100 µM throughout.
Turning to `COc1cccc(CCC2CCCN(c3cc(C)nc(N)n3)C2)c1` (centres undefined), the GI50 in assay [1] is 0.435 µM; in assay [2], 0.531 µM; in assay [3] it was 0.418 µM; in [4] it was 0.394 µM; in assay [5], 0.238 µM; in assay [6], 0.368 µM. The GI50 in [7] is 0.259 µM; in assay [8], 1.37 µM; in assay [9], 0.348 µM; in assay [10] it was 0.363 µM. Also, the TGI in [1] amounted to 8.23 µM; in assay [2], 8.93 µM; in [3], 12.3 µM; in assay [4], 5.9 µM; in [5], 8.26 µM; in assay [6] it was 5.87 µM. Further, the TGI in [7] worked out at 10.6 µM; in assay [8] it was 17.7 µM; in assay [9], 3.13 µM; in assay [10] it was 13.7 µM.
Regarding `Cn1cc(C2=C(c3ccccc3[N+](=O)[O-])C(=O)NC2=O)c2ccccc21`, the GI50 is 2.92 µM in assay [1]; 6.07 µM in assay [2]; 5.16 µM in assay [3]; 6.32 µM in assay [4]; 7.52 µM in assay [5]; 1.61 µM in assay [6]. Also, the GI50 was 2.14 µM in assay [7], 7.11 µM in assay [8], 5.93 µM in assay [9] and 3.97 µM in [10]. The TGI was 9.55 µM in [1]; more than 25 µM in assay [2]; more than 25 µM in assay [3]; more than 21.6 µM in assay [4]; 23.5 µM in assay [5]; 7.19 µM in assay [6]. In addition, the TGI in assay [7] was more than 25 µM; in assay [8], 17.7 µM; in [9] it was 15.2 µM; in [10], more than 20 µM.

Source of the values: PubChem BioAssay (NCI).
